# From US6737383B1, “Herbicidal oxadiazolidines” (priority 1999, dated 2004)
# Tests used:
# blackgrass = test: Test B pre/postemergence blackgrass; assay type: in vivo, Alopecurus myosuroides
# In short: (§1)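 Test chemicals in a non-phytotoxic solvent mixture with surfactant were sprayed preemergence onto planted seeds and postemergence onto plants 2 to 18 cm tall (1- to 4-leaf stage). After twelve to sixteen days in a greenhouse, injury was visually rated against untreated controls from 0 (no effect) to 10 (complete control).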
# surinam grass = test: Test B pre/postemergence surinam grass; assay type: in vivo, Brachiaria decumbens
# In short: as §1
# cocklebur = test: Test B pre/postemergence cocklebur; assay type: in vivo, Xanthium strumarium
# In short: as §1
# corn = test: Test B pre/postemergence corn; assay type: in vivo, Zea mays
# In short: as §1
# crabgrass = test: Test B pre/postemergence crabgrass; assay type: in vivo, Digitaria sanguinalis
# In short: as §1
# giant foxtail = test: Test B pre/postemergence giant foxtail; assay type: in vivo, Setaria faberii
# In short: as §1
# morningglory = test: Test B pre/postemergence morningglory; assay type: in vivo, Ipomoea hederacea
# In short: as §1
# pigweed = test: Test B pre/postemergence pigweed; assay type: in vivo, Amaranthus retroflexus
# In short: as §1
# rape = test: Test B pre/postemergence rape; assay type: in vivo, Brassica napus
# In short: as §1
# soybean = test: Test B pre/postemergence soybean; assay type: in vivo, Glycine max
# In short: as §1
# sugar beet = test: Test B pre/postemergence sugar beet; assay type: in vivo, Beta vulgaris
# In short: as §1
# velvetleaf = test: Test B pre/postemergence velvetleaf; assay type: in vivo, Abutilon theophrasti
# In short: as §1
# wheat = test: Test B pre/postemergence wheat; assay type: in vivo, Triticum aestivum
# In short: as §1
# wild oat = test: Test B pre/postemergence wild oat; assay type: in vivo, Avena fatua
# In short: as §1
# purple nutsedge = test: Test B pre/postemergence purple nutsedge; assay type: in vivo, Cyperus rotundus
# In short: as §1
# rice = test: Test B flood test rice; assay type: in vivo, Oryza sativa
# In short: (§2)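 Flood test on plants grown to the 2-leaf stage; treated plants kept in greenhouse twelve to sixteen days, then visually rated against controls on a 0 (no effect) to 10 (complete control) scale.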
# smallflower flatsedge = test: Test B flood test smallflower flatsedge; assay type: in vivo, Cyperus difformis
# In short: as §2
# duck salad = test: Test B flood test duck salad; assay type: in vivo, Heteranthera limosa
# In short: as §2
# bamyardgrass = test: Test B flood test barnyardgrass; assay type: in vivo, Echinochloa crus-galli
# In short: as §2
# [1] = Postemergence, Rate 62 g/ha, scale 0 to 10, 0 is no effect, 10 is complete control
# [2] = Postemergence, Rate 125 g/ha, scale of 0 to 10 where 0 is no effect and 10 is complete control
# [3] = Postemergence, Rate 250 g/ha, scale of 0 to 10, 0 is no effect, 10 is complete control
# [4] = Postemergence, Rate 500 g/ha, scale of 0 to 10 where 0 is no effect and 10 is complete control
# [5] = Preemergence, Rate 62 g/ha, scale of 0 to 10 where 0 is no effect and 10 is complete control
# [6] = Preemergence, Rate 125 g/ha, scale of 0 to 10 where 0 is no effect and 10 is complete control
# [7] = Preemergence, Rate 250 g/ha, scale 0 to 10 (0 no effect, 10 complete control)
# [8] = Preemergence, Rate 500 g/ha, scale of 0 to 10 where 0 is no effect and 10 is complete control
# [9] = Rate 62 g/ha, flood test species, Pre-emergence, visual evaluation after twelve to sixteen days
# [10] = Rate 125 g/ha, under heading Pre-emergence, flood test species, visual evaluation after twelve to sixteen days
# [11] = Rate 250 g/ha, Pre-emergence (flood test species), scale 0 to 10, 0 is no effect, 10 is complete control
# [12] = Rate 500 g/ha, Pre-emergence section of Table B, 0 to 10 scale (0 no effect, 10 complete control)
compound,measurement,setting,value
CC(C)N(C(=O)n1oc(=O)n(CC(=O)C2CC2)c1=O)c1ccc(Cl)cc1 [Compound 639],"Plant response rating, Blackgrass",blackgrass; [1],0
same,"Plant response rating, Blackgrass",blackgrass; [2],0
same,Blackgrass plant response rating,blackgrass; [3],2
same,"Plant response rating, Blackgrass",blackgrass; [4],6
same,Blackgrass plant response rating,blackgrass; [5],0
same,Blackgrass plant response rating,blackgrass; [6],0
same,"Plant response rating, Blackgrass",blackgrass; [7],2
same,"Plant response rating, Blackgrass",blackgrass; [8],2
same,"Plant response rating, B. signalgrass",surinam grass; [1],0
same,"Plant response rating, B. signalgrass",surinam grass; [2],0
same,B. signalgrass plant response rating,surinam grass; [3],0
same,"Plant response rating, B. signalgrass",surinam grass; [4],2
same,B. signalgrass plant response rating,surinam grass; [5],0
same,B. signalgrass plant response rating,surinam grass; [6],0
same,"Plant response rating, B. signalgrass",surinam grass; [7],5
same,"Plant response rating, B. signalgrass",surinam grass; [8],7
same,"Plant response rating, Cocklebur",cocklebur; [1],0
same,"Plant response rating, Cocklebur",cocklebur; [2],0
same,Cocklebur plant response rating,cocklebur; [3],2
same,"Plant response rating, Cocklebur",cocklebur; [4],2
same,Cocklebur plant response rating,cocklebur; [5],0
same,Cocklebur plant response rating,cocklebur; [6],0
same,"Plant response rating, Cocklebur",cocklebur; [7],0
same,"Plant response rating, Cocklebur",cocklebur; [8],2
same,"Plant response rating, Corn",corn; [1],0
same,"Plant response rating, Corn",corn; [2],0
same,Corn plant response rating,corn; [3],0
same,"Plant response rating, Corn",corn; [4],0
same,Corn plant response rating,corn; [5],0
same,Corn plant response rating,corn; [6],0
same,"Plant response rating, Corn",corn; [7],0
same,"Plant response rating, Corn",corn; [8],0
same,"Plant response rating, Crabgrass",crabgrass; [1],0
same,Crabgrass plant response rating,crabgrass; [3],2
same,"Plant response rating, Crabgrass",crabgrass; [4],8
same,Crabgrass plant response rating,crabgrass; [5],7
same,Crabgrass plant response rating,crabgrass; [6],7
same,"Plant response rating, Crabgrass",crabgrass; [7],9
same,"Plant response rating, Crabgrass",crabgrass; [8],9
same,"Plant response rating, Giant foxtail",giant foxtail; [1],0
same,"Plant response rating, Giant foxtail",giant foxtail; [2],0
same,Giant foxtail plant response rating,giant foxtail; [3],6
same,"Plant response rating, Giant foxtail",giant foxtail; [4],7
same,Giant foxtail plant response rating,giant foxtail; [5],7
same,Giant foxtail plant response rating,giant foxtail; [6],9
same,"Plant response rating, Giant foxtail",giant foxtail; [7],9
same,"Plant response rating, Giant foxtail",giant foxtail; [8],9
same,"Plant response rating, Morningglory",morningglory; [1],0
same,"Plant response rating, Morningglory",morningglory; [2],3
same,Morningglory plant response rating,morningglory; [3],7
same,"Plant response rating, Morningglory",morningglory; [4],7
same,Morningglory plant response rating,morningglory; [5],0
same,Morningglory plant response rating,morningglory; [6],0
same,"Plant response rating, Morningglory",morningglory; [7],0
same,"Plant response rating, Morningglory",morningglory; [8],0
same,"Plant response rating, Redroot pigweed",pigweed; [1],3
same,"Plant response rating, Redroot pigweed",pigweed; [2],4
same,Redroot pigweed plant response rating,pigweed; [3],4
same,Redroot pigweed plant response rating,pigweed; [5],0
same,Redroot pigweed plant response rating,pigweed; [6],0
same,"Plant response rating, Redroot pigweed",pigweed; [7],2
same,"Plant response rating, Redroot pigweed",pigweed; [8],10
same,"Plant response rating, Rape",rape; [1],0
same,"Plant response rating, Rape",rape; [2],0
same,Rape plant response rating,rape; [3],0
same,"Plant response rating, Rape",rape; [4],3
same,Rape plant response rating,rape; [5],0
same,Rape plant response rating,rape; [6],0
same,"Plant response rating, Rape",rape; [7],3
same,"Plant response rating, Rape",rape; [8],10
same,"Plant response rating, Soybean",soybean; [1],0
same,"Plant response rating, Soybean",soybean; [2],0
same,Soybean plant response rating,soybean; [3],3
same,Soybean plant response rating,soybean; [5],0
same,Soybean plant response rating,soybean; [6],0
same,"Plant response rating, Soybean",soybean; [7],0
same,"Plant response rating, Soybean",soybean; [8],3
same,"Plant response rating, Sugarbeets",sugar beet; [1],0
same,"Plant response rating, Sugarbeets",sugar beet; [2],0
same,Sugarbeets plant response rating,sugar beet; [3],0
same,Sugarbeets plant response rating,sugar beet; [5],0
same,Sugarbeets plant response rating,sugar beet; [6],0
same,"Plant response rating, Sugarbeets",sugar beet; [7],0
same,"Plant response rating, Sugarbeets",sugar beet; [8],6
same,"Plant response rating, Velvetleaf",velvetleaf; [1],0
same,"Plant response rating, Velvetleaf",velvetleaf; [2],0
same,Velvetleaf plant response rating,velvetleaf; [3],0
same,Velvetleaf plant response rating,velvetleaf; [5],0
same,Velvetleaf plant response rating,velvetleaf; [6],0
same,"Plant response rating, Velvetleaf",velvetleaf; [7],0
same,"Plant response rating, Velvetleaf",velvetleaf; [8],3
same,"Plant response rating, Wheat",wheat; [1],0
same,"Plant response rating, Wheat",wheat; [2],0
same,Wheat plant response rating,wheat; [3],0
same,Wheat plant response rating,wheat; [5],0
same,Wheat plant response rating,wheat; [6],0
same,"Plant response rating, Wheat",wheat; [7],0
same,"Plant response rating, Wheat",wheat; [8],0
same,"Plant response rating, Wild oats",wild oat; [1],1
same,"Plant response rating, Wild oats",wild oat; [2],1
same,Wild oats plant response rating,wild oat; [3],1
same,Wild oats plant response rating,wild oat; [5],0
same,Wild oats plant response rating,wild oat; [6],0
same,"Plant response rating, Wild oats",wild oat; [7],0
same,"Plant response rating, Wild oats",wild oat; [8],3
same,"Plant response rating, Nutsedge",purple nutsedge; [1],0
same,"Plant response rating, Nutsedge",purple nutsedge; [2],0
same,Nutsedge plant response rating,purple nutsedge; [5],0
same,Nutsedge plant response rating,purple nutsedge; [6],0
same,"Plant response rating, Nutsedge",purple nutsedge; [7],0
same,"Plant response rating, Nutsedge",purple nutsedge; [8],0
same,"Plant response rating, Rice (0 to 10 scale, 0 is no effect, 10 is complete control)",rice; [9],0
same,"Rice plant response rating (0 to 10 scale, 0 is no effect, 10 is complete control)",rice; [10],0
same,Rice plant response rating,rice; [11],0
same,Rice plant response rating,rice; [12],0
same,"Plant response rating, S. Flatsedge (0 to 10 scale, 0 is no effect, 10 is complete control)",smallflower flatsedge; [9],0
same,"S. Flatsedge plant response rating (0 to 10 scale, 0 is no effect, 10 is complete control)",smallflower flatsedge; [10],0
same,S. Flatsedge plant response rating,smallflower flatsedge; [11],0
same,S. Flatsedge plant response rating,smallflower flatsedge; [12],0
same,"Plant response rating, Ducksalad (0 to 10 scale, 0 is no effect, 10 is complete control)",duck salad; [9],0
same,"Ducksalad plant response rating (0 to 10 scale, 0 is no effect, 10 is complete control)",duck salad; [10],0
same,Ducksalad plant response rating,duck salad; [11],0
same,Ducksalad plant response rating,duck salad; [12],0
same,"Plant response rating, Barnyardgrass (0 to 10 scale, 0 is no effect, 10 is complete control)",bamyardgrass; [9],0
same,"Barnyardgrass plant response rating (0 to 10 scale, 0 is no effect, 10 is complete control)",bamyardgrass; [10],0
same,Barnyardgrass plant response rating,bamyardgrass; [11],0
same,Barnyardgrass plant response rating,bamyardgrass; [12],0
